Measured values: PubChem BioAssay (NCI)
Values joined by “and” are separate entries in the source; they are usually repeats but may differ in a detail not shown here. Equal values may be shown once.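 48-hour exposure; five concentrations; linearly interpolated endpoints. GI50 = concentration required for 50% inhibition of growth. The concentration for full growth arrest is given as TGI.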

Experiments:
Assay in all cases: DTP human tumour cell line panel, 48 h
SF-295 CNS = test system: SF-295 CNS
M14 melanoma = test system: M14 melanoma
DU-145 prostate = test system: DU-145 prostate
OVCAR-4 ovarian = test system: OVCAR-4 ovarian
HCT-15 colon = test system: HCT-15 colon
NCI-H23 lung = test system: NCI-H23 lung
SF-539 CNS = test system: SF-539 CNS
SW-620 colon = test system: SW-620 colon
DMS 114 small cell lung = test system: DMS 114 small cell lung
LXFL 529 NSCLC = test system: LXFL 529 NSCLC

Structure (SMILES) | GI50 (SF-295 CNS) | TGI (SF-295 CNS) | GI50 (M14 melanoma) | TGI (M14 melanoma) | GI50 (DU-145 prostate) | TGI (DU-145 prostate) | GI50 (OVCAR-4 ovarian) | TGI (OVCAR-4 ovarian) | GI50 (HCT-15 colon) | TGI (HCT-15 colon) | GI50 (NCI-H23 lung) | TGI (NCI-H23 lung) | GI50 (SF-539 CNS) | TGI (SF-539 CNS) | GI50 (SW-620 colon) | TGI (SW-620 colon) | TGI (DMS 114 small cell lung) | TGI (LXFL 529 NSCLC) | GI50 (LXFL 529 NSCLC)
COc1cc(/C=C/C(=O)c2cc(F)c(Cl)cc2Cl)cc(OC)c1OC | 44.4 µM | > 100 µM | 43.9 µM | > 100 µM | 68.6 µM | > 100 µM | 48.6 µM | > 100 µM | 19.8 µM | 54.4 µM | 34.2 µM | > 100 µM | 28.1 µM | > 100 µM | 31.9 µM | > 100 µM | – | – | –
COc1cc2c3c(n(CCN)c(=O)c2cc1OC)-c1cc2c(cc1C3=O)OCO2 | < 0.0352 µM | 2.09 µM | < 0.0185 µM | 1.41 µM | 0.0401 µM | 1.13 µM | 1.43 µM | 3.02 µM | 0.471 µM | – | 0.0788 µM | 1.06 µM | 0.766 µM | 2.74 µM | 0.0383 µM | 2.29 µM | – | – | –
COc1cc2cc(Oc3ccc(NC(=O)Nc4ccccc4)cc3)c(C)nc2cc1OCCN1CCCCC1 | 6 µM | 11.2 µM | 5.63 µM | 11.1 µM | 5.92 µM | 11.4 µM | 6.96 µM | 18.2 µM | 4.18 µM | 9.14 µM | 6.4 µM | 13.7 µM | 5.46 µM | 10.3 µM | 6.09 µM | 11.9 µM | – | – | –
FC(F)(F)c1ccc(C=NC23CC4CC(CC(C4)C2)C3)cc1 | – | > 100 µM | – | > 100 µM | – | – | – | > 100 µM | – | > 100 µM | – | > 100 µM | – | > 100 µM | – | > 100 µM | > 100 µM | – | –
CCc1cccc(C(C)C)c1NC(=O)C(=O)C(C(=O)C(=O)OC)c1nc2ccccc2[nH]c1=O (configuration not stated) | – | > 100 µM | – | > 100 µM | – | – | – | > 100 µM | – | > 100 µM | – | > 100 µM | – | – | – | > 100 µM | > 100 µM | > 100 µM | –
CCC(C(=O)[O-])C(=O)[O-].CCC(C(=O)[O-])C(=O)[O-].N.N.NCCCCCN.[Pt+4].[Pt+4] | > 100 µM | > 100 µM | > 100 µM | > 100 µM | – | – | > 100 µM | > 100 µM | > 100 µM | > 100 µM | > 100 µM | > 100 µM | > 100 µM | > 100 µM | > 100 µM | > 100 µM | – | > 100 µM | > 100 µM
O=c1cccc(C#Cc2ccccc2)o1 | 5.03 µM | 13.8 µM | 5.9 µM | > 22.8 µM | 7.74 µM | > 68.6 µM | 18.4 µM | 44.5 µM | 6.9 µM | 23.6 µM | 4.42 µM | 12.2 µM | 3.72 µM | 27.6 µM | 4.85 µM | 43.3 µM | – | – | –
O=S(=O)(NC(=S)Nc1ccccc1)c1ccc(N2N=C3c4ccccc4CC3C2c2cccs2)cc1 (configuration not stated) | 18.9 µM | 41.8 µM | 22.7 µM | 46.3 µM | 17.8 µM | 41.5 µM | 69.8 µM | > 100 µM | 22.6 µM | 63.5 µM | 17.6 µM | 39.5 µM | 22.7 µM | 46.3 µM | 30 µM | > 100 µM | – | – | –
Cc1ccc(NS(=O)(=O)c2cc(C(C)(C)C)ccc2OCCOCCOCCOc2ccc(C(C)(C)C)cc2S(=O)(=O)Nc2ccc(C)cc2)cc1 | – | > 100 µM | – | > 100 µM | – | – | – | > 100 µM | – | > 100 µM | – | > 100 µM | – | > 100 µM | – | > 100 µM | > 100 µM | – | –
Cc1ccc(S(=O)(=O)CNC(=S)CCCC(=S)NCS(=O)(=O)c2ccc(C)cc2)cc1 | – | > 100 µM | – | > 100 µM | – | – | – | > 100 µM | – | > 100 µM | – | > 100 µM | – | > 100 µM | – | > 100 µM | – | > 100 µM | –
COc1cccc(/C=C/C(=O)c2ccc(Cl)cc2Cl)c1OC | 15 µM | 32.5 µM | 13.7 µM | 26.7 µM | 11.4 µM | 27.5 µM | 11.3 µM | 34 µM | 3.76 µM | 12.9 µM | 13.7 µM | 26.6 µM | 14.1 µM | 29 µM | 2.98 µM | 9.12 µM | – | – | –
COC(=O)c1ccc(=O)c2nc3/c(=C/O)c(O)cc(=O)c3[nH]c12 | 0.153 µM | 14.3 µM and 8.64 µM | 1.07 µM | 24.9 µM and 24.5 µM | – | 16.5 µM and 17.6 µM | 3.58 µM | 31.4 µM and 29.8 µM | 0.42 µM | 21.4 µM and 14.5 µM | 0.514 µM | 9.33 µM and 16.7 µM | 1.21 µM | 15.6 µM and 14.5 µM | 1.21 µM | > 60.4 µM and 18.9 µM | – | – | –
COC(=O)c1c2c(c(C)[n+]([O-])c1C)C(=O)C=C(NCc1cccc(OC)c1)C2=O | 0.772 µM | 2.1 µM | 0.405 µM | 1.54 µM | 1.06 µM | 2.29 µM | 0.246 µM | 0.993 µM | 0.331 µM | 1.61 µM | 0.515 µM | 2.57 µM | 0.879 µM | 2.11 µM | 0.318 µM | 1.26 µM | – | – | –
O=C(Oc1ccc([N+](=O)[O-])cc1)N1CCN(Cc2cccc(Oc3ccccc3)c2)CC1 | 62.9 µM | > 100 µM | > 100 µM | > 100 µM | > 100 µM | > 100 µM | > 44.8 µM | > 100 µM | > 100 µM | > 100 µM | > 71.9 µM | > 100 µM | > 100 µM | > 100 µM | > 100 µM | > 100 µM | – | – | –
Cc1c(O)c(=O)ccn1C1OC(CO)C(O)C1O (configuration not stated) | – | > 100 µM | – | > 100 µM | – | – | – | > 100 µM | – | > 100 µM | – | – | – | – | – | > 100 µM | – | > 100 µM | –
COc1ccc(-c2cnc(-c3ccc(F)cc3)[nH]2)cc1 | 1.54 µM | 3.43 µM | 5.99 µM | 14.5 µM | 2.59 µM | 7.59 µM | 10.1 µM | > 35.3 µM | 5.98 µM | 13.9 µM | 10.6 µM | 46.6 µM | 9.46 µM | 29.6 µM | 1.91 µM | 3.99 µM | – | – | –
